In brackets after ≈: the same amount, converted by molar mass. Several values for one entry are separate records, joined by “and”; a condition that tells them apart may be missing. Identical values can stand only once. Like-named read-outs stand apart in the source and are kept apart here. Starred links: 1 amine or outer side, 2 acyl side, 3 side chain; linkers in the order of their positions; H or OH if unused. Non-standard residues stand in square brackets, D forms with d. Residues, ends and D or L forms follow the SMILES beside them. *: point of attachment. Trp(1-(1,1-Me2-allyl)) = C=CC(C)(C)n1cc(C[C@H](N)C(=O)O)c2ccccc21; Phe(βR-OMe) = CO[C@H](c1ccccc1)[C@H](N)C(=O)O; X4 = C/C=C/[C@@H](C)[C@H](N[*:1])C(=O)[*:2]; X2 = CN([C@@H](CCCO)C(=O)[*:2])[*:1]; NMeE = CN[C@@H](CCC(=O)O)C(=O)O; NMeL = CN[C@@H](CC(C)C)C(=O)O; NMeK = CN[C@@H](CCCCN)C(=O)O; tBu = CC(C)(C)*; NHPr = CCCN*
Experiments:
[1] = target: T1, ClpC1NTD (Mycolicibacterium smegmatis, UniProt A0R574); test: Binding affinity by isothermal titration calorimetry (ITC); conditions: ITC at 25 °C, 50 mM Tris pH 7.5, 100 mM NaCl, 2% DMSO, single binding site model
T1 construct: M. smegmatis clpC1 NTD (1-148) was cloned in pET21a; hexahistidine (C); made in house; host or cells: E. coli BL21 (DE3) or Rosetta
Description: Binding affinities were determined using isothermal titration calorimetry (ITC).
ITC experiments were carried out using MicroCal PEAQ-ITC (Malvern) at 25 °C, whilst stirring at 750 rpm in a buffer containing 50 mM Tris pH 7.5, 100 mM NaCl. Each titration consisted of 19 injections with intervals of 120 s (the first injection of 0.4 µL followed by 18 injections of 2 µL). DMSO concentration was matched between cell and syringe to 2%. The data were fitted to a single binding site model with a fitted offset subtraction in the MicroCal PEAQ-ITC Analysis Software. Each titration was repeated at least two times. Titrations were performed with ligand in the syringe and protein in the cell. A control titration of ligand into buffer was performed in order to account for the heat of dilution. Titrations involving compounds with poorer solubility of the compound in buffer were performed with ligand in the cell and protein in the syringe. The following table 2 provides the results of the determination. Table 2: results for dissociation constant (KD) and Minimal Inhibitory Concentration (MIC)

[2] = tested on: mycobacterial cell; test: Minimal Inhibitory Concentration (MIC); type: cell-based
[3] = amide bond, 21-membered ring
[4] = from H-Val-MeLeu-Ile-Trp(Boc)-MeGlu(tBu)-Ala-Phe-OH; amide bond; 21-membered ring; T3P/DIEA; DCM; 0.75 mM; 25.0 °C
[5] = the molecule shown is the open-chain precursor
[6] = the molecule shown is the open-chain precursor, DIC/HOAt/Et3N, DCM, 0.75 mM, 25.0 °C

T1 sequence (A0R574 1-148): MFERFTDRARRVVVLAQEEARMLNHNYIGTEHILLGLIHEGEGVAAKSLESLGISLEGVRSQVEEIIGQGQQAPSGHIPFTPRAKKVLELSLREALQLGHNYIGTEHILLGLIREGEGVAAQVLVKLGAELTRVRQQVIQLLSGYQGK

CC[C@H](C)[C@@H]1NC(=O)[C@H](CC(C)C)N(C)C(=O)[C@H](C(C)C)NC(=O)[C@H](Cc2ccccc2)NC(=O)[C@H](C)NC(=O)[C@H](CCC(=O)O)N(C)C(=O)[C@H](Cc2c[nH]c3ccccc23)NC1=O [CycloA_D2] (cyclo(AFV[NMeL]IW[NMeE]))
Kd [1]: 225 µM

CC[C@H](C)[C@@H]1NC(=O)[C@H](CC(C)C)N(C)C(=O)[C@H](C(C)C)NC(=O)[C@H](Cc2ccccc2)NC(=O)[C@H](C)NC(=O)[C@H](CCCO)N(C)C(=O)[C@H](Cc2ccc(OC(C)(C)C)cc2)NC1=O [CycloA_D5a] (cyclo(V[NMeL]IY(tBu)[X2]AF))
Kd [1]: 128 µM
MIC [2]: > 30 µM

CC[C@H](C)[C@@H]1NC(=O)[C@H](CC(C)C)N(C)C(=O)[C@H](C(C)C)NC(=O)[C@H](Cc2ccccc2)NC(=O)[C@H](C)NC(=O)[C@H](CCCO)N(C)C(=O)[C@H](Cc2ccc(O)cc2)NC1=O [CycloA_D5b] (cyclo(V[NMeL]IY[X2]AF))
Kd [1]: 326 µM

CC[C@H](C)[C@@H]1NC(=O)[C@H](CC(C)C)N(C)C(=O)[C@H](C(C)C)NC(=O)[C@H](Cc2ccccc2)NC(=O)[C@H](C)NC(=O)[C@H](CCCCN)N(C)C(=O)[C@H](Cc2c[nH]c3ccccc23)NC1=O [CycloA_D6] (cyclo(AFV[NMeL]IW[NMeK]))
Kd [1]: 14.9 µM
MIC [2]: 24 µM (≈ 21.3 µg/mL)

CCCNC(=O)CC[C@H]1C(=O)N[C@@H](C)C(=O)N[C@@H](Cc2ccccc2)C(=O)N[C@@H](C(C)C)C(=O)N(C)[C@@H](CC(C)C)C(=O)N[C@@H]([C@@H](C)CC)C(=O)N[C@@H](Cc2c[nH]c3ccccc23)C(=O)N1C [CycloA_D7] (cyclo(AFV[NMeL]IW[NMeE](NHPr)))
Kd [1]: 26.8 µM
MIC [2]: > 120 µM

CC[C@H](C)[C@@H]1NC(=O)[C@H](CC(C)C)N(C)C(=O)[C@H](C(C)C)NC(=O)[C@H]([C@H](OC)c2ccccc2)NC(=O)[C@H](C)NC(=O)[C@H](CCCCN)N(C)C(=O)[C@H](Cc2c[nH]c3ccccc23)NC1=O [CycloA_D9] (cyclo(W[NMeK]A[Phe(βR-OMe)]V[NMeL]I))
Kd [1]: 2.8 µM
MIC [2]: 12 µM (≈ 11 µg/mL)

C=CC(C)(C)n1cc(C[C@@H]2NC(=O)[C@H]([C@@H](C)CC)NC(=O)[C@H](CC(C)C)N(C)C(=O)[C@H](C(C)C)NC(=O)[C@H](Cc3ccccc3)NC(=O)[C@H](C)NC(=O)[C@H](CCCCN)N(C)C2=O)c2ccccc21 [CycloA_D10] (cyclo(AFV[NMeL]I[Trp(1-(1,1-Me2-allyl))][NMeK]))
MIC [2]: 40 µM (≈ 38.2 µg/mL)

C=CC(C)(C)n1cc(C[C@@H]2NC(=O)[C@H]([C@@H](C)CC)NC(=O)[C@H](CC(C)C)N(C)C(=O)[C@H](C(C)C)NC(=O)[C@H]([C@H](OC)c3ccccc3)NC(=O)[C@H](C)NC(=O)[C@H](CCCCN)N(C)C2=O)c2ccccc21 [CycloA_D11] (cyclo(A[Phe(βR-OMe)]V[NMeL]I[Trp(1-(1,1-Me2-allyl))][NMeK]))
MIC [2]: 20 µM (≈ 19.7 µg/mL)

CC[C@H](C)[C@@H]1NC(=O)[C@H](CCC(=O)O)N(C)C(=O)[C@H](C(C)C)NC(=O)[C@H]([C@H](OC)c2ccccc2)NC(=O)[C@H](C)NC(=O)[C@H](CCCCN)N(C)C(=O)[C@H](Cc2c[nH]c3ccccc23)NC1=O [CycloA_D13] (cyclo(A[Phe(βR-OMe)]V[NMeE]IW[NMeK]))
MIC [2]: >200 µM

C=CC(C)(C)n1cc(C[C@@H]2NC(=O)[C@H]([C@H](C)/C=C/C)NC(=O)[C@H](CC(C)C)N(C)C(=O)[C@H](C(C)C)NC(=O)[C@H]([C@H](OC)c3ccccc3)NC(=O)[C@H](C)NC(=O)[C@H](CCCCN)N(C)C2=O)c2ccccc21 [CycloA_D17] (cyclo(A[Phe(βR-OMe)]V[NMeL][X4][Trp(1-(1,1-Me2-allyl))][NMeK]))
MIC [2]: 20 µM (≈ 19.9 µg/mL)

CC[C@H](C)[C@@H]1NC(=O)[C@H](CC(C)C)N(C)C(=O)[C@H](C(C)C)NC(=O)[C@H](Cc2ccccc2)NC(=O)[C@H](C)NC(=O)[C@H](CCCO)N(C)C(=O)[C@H](Cc2c[nH]c3ccccc23)NC1=O [CylcoA_D4] (cyclo(AFV[NMeL]IW[X2]))
Kd [1]: 107 µM
MIC [2]: > 30 µM

CC[C@H](C)[C@@H]1NC(=O)[C@H](CCC(=O)OC(C)(C)C)N(C)C(=O)[C@H](C(C)C)NC(=O)[C@H]([C@H](OC)c2ccccc2)NC(=O)[C@H](C)NC(=O)[C@H](CCCCNC(=O)OC(C)(C)C)N(C)C(=O)[C@H](Cc2cn(C(=O)OC(C)(C)C)c3ccccc23)NC1=O [H-Val-MeGlu(tBu)-Ile-Trp(Boc)-MeLys(Boc)-Ala-Phe(3R-MeO)-OH]
ring closure, crude yield ([3]; from H-Val-MeGlu(tBu)-Ile-Trp(Boc)-MeLys(Boc)-Ala-Phe(3R-MeO)-OH, T3P/DIEA, DCM, 0.75 mM, 25.0 °C): 52%

CC[C@H](C)[C@@H]1NC(=O)[C@H](CC(C)C)N(C)C(=O)[C@H](C(C)C)NC(=O)[C@H](Cc2ccccc2)NC(=O)[C@H](C)NC(=O)[C@H](CCC(=O)OC(C)(C)C)N(C)C(=O)[C@H](Cc2cn(C(=O)OC(C)(C)C)c3ccccc23)NC1=O [H-Val-MeLeu-Ile-Trp(Boc)-MeGlu(tBu)-Ala-Phe-OH]
ring closure, yield after HPLC [4]: 39%
ring closure, crude yield ([3]; from H-Val-MeLeu-Ile-Trp(Boc)-MeGlu(tBu)-Ala-Phe-OH, T3P/DIEA, DCM, 0.75 mM, 25.0 °C): 52% and 54%

CC[C@H](C)[C@@H]1NC(=O)[C@H](CC(C)C)N(C)C(=O)[C@H](C(C)C)NC(=O)[C@H](Cc2ccccc2)NC(=O)[C@H](C)NC(=O)[C@H](CCCO[Si](C)(C)C(C)(C)C)N(C)C(=O)[C@H](Cc2cn(C(=O)OC(C)(C)C)c3ccccc23)NC1=O [H-Val-MeLeu-Ile-Trp(Boc)-MeHnv(TBDMS)-Ala-Phe-OH]
ring closure, crude yield ([3]; from H-Val-MeLeu-Ile-Trp(Boc)-MeHnv(TBDMS)-Ala-Phe-OH, T3P/DIEA, DCM, 0.75 mM, 25.0 °C): 94%

CC[C@H](C)[C@@H]1NC(=O)[C@H](CC(C)C)N(C)C(=O)[C@H](C(C)C)NC(=O)[C@H]([C@H](OC)c2ccccc2)NC(=O)[C@H](C)NC(=O)[C@H](CCCCNC(=O)OC(C)(C)C)N(C)C(=O)[C@H](Cc2cn(C(=O)OC(C)(C)C)c3ccccc23)NC1=O [H-Val-MeLeu-Ile-Trp(Boc)-MeLys(Boc)-Ala-Phe(3R-MeO)-OH]
ring closure, crude yield ([3]; from H-Val-MeLeu-Ile-Trp(Boc)-MeLys(Boc)-Ala-Phe(3R-MeO)-OH, T3P/DIEA, DCM, 0.75 mM, 25.0 °C): 88%

CC[C@H](C)[C@@H]1NC(=O)[C@H](CC(C)C)N(C)C(=O)[C@H](C(C)C)NC(=O)[C@H](Cc2ccccc2)NC(=O)[C@H](C)NC(=O)[C@H](CCCCNC(=O)OC(C)(C)C)N(C)C(=O)[C@H](Cc2cn(C(=O)OC(C)(C)C)c3ccccc23)NC1=O [H-Val-MeLeu-Ile-Trp(Boc)-MeLys(Boc)-Ala-Phe-OH]
ring closure, crude yield ([3]; from H-Val-MeLeu-Ile-Trp(Boc)-MeLys(Boc)-Ala-Phe-OH, T3P/DIEA, DCM, 0.75 mM, 25.0 °C): 75%

CC[C@H](C)[C@@H]1NC(=O)[C@H](CC(C)C)N(C)C(=O)[C@H](C(C)C)NC(=O)[C@H](Cc2ccccc2)NC(=O)[C@H](C)NC(=O)[C@H](CCCNC(=O)OC(C)(C)C)N(C)C(=O)[C@H](Cc2cn(C(=O)OC(C)(C)C)c3ccccc23)NC1=O [H-Val-MeLeu-Ile-Trp(Boc)-MeOrn(Boc)-Ala-Phe-OH]
ring closure, crude yield ([3]; from H-Val-MeLeu-Ile-Trp(Boc)-MeOrn(Boc)-Ala-Phe-OH, T3P/DIEA, DCM, 0.75 mM, 25.0 °C): 98%

CC[C@H](C)[C@@H]1NC(=O)[C@H](CC(C)C)N(C)C(=O)[C@H](C(C)C)NC(=O)[C@H](Cc2ccccc2)NC(=O)[C@H](C)NC(=O)[C@H](CCC(=O)OC)N(C)C(=O)[C@H](Cc2ccc(OC(C)(C)C)cc2)NC1=O [H-Val-MeLeu-Ile-Tyr(tBu)-MeGlu(Me)-Ala-Phe-OH]
ring closure, crude yield ([3]; from H-Val-MeLeu-Ile-Tyr(tBu)-MeGlu(Me)-Ala-Phe-OH, T3P/DIEA, DCM, 0.75 mM, 25.0 °C): 72%

H-Glu(TOTA-PMX-methylester)-Phe(3R-MeO)-Val-MeLeu-Ile-Trp(Boc)-MeLys(Boc)-OH
ring closure, crude yield [3, 5]: 77% and 58%

H-Glu(TOTA-TMP)-Phe(3R-MeO)-Val-MeLeu-Ile-Trp(Boc)-MeLys(Boc)-OH?
ring closure, crude yield [3, 5]: 65%

H-Val-MeLeu-Ile-Trp(Boc)-MeLys(Boc)-Glu(TOTA-(+)JQ1)-Phe(3R-MeO)-OH
ring closure, crude yield [3, 5]: 64%

H-Val-MeLeu-Ile-Trp(Boc)-MeLys(Boc)-Glu(TOTA-(-)JQ1)-Phe(3R-MeO)-OH
ring closure, crude yield [3, 5]: 70%

H-Val-MeLeu-Ile-Trp(Boc)-MeLys(Boc)-Glu(TOTA-Biotin)-Phe(3R-MeO)-OH
ring closure, crude yield [3, 6]: 63%

H-Val-MeLeu-Ile-Trp(Boc)-MeLys(Boc)-Glu(TOTA-SLF')-Phe(3R-MeO)-OH
ring closure, crude yield [3, 5]: 54%

H-Val-MeLeu-Ile-Trp(Boc)-MeLys(Boc)-Lys(Biotin)-Phe(3R-MeO)-OH
ring closure, crude yield [3, 6]: 72%

H-Val-MeLeu-Ile-Trp(prenyl)-MeLys(Boc)-Ala-Phe(3R-MeO)-OH
ring closure, crude yield [3, 6]: 65%

H-Val-MeLeu-Ile-Trp(prenyl)-MeLys(Boc)-Ala-Phe-OH
ring closure, crude yield [3, 6]: 78%

H-Val-MeLeu-dehydroisonorleucine-Trp(prenyl)-MeLys(Boc)-Ala-Phe(3R-MeO)-OH
ring closure, crude yield [3, 6]: 81%

Source: EP4089103A1, “CLPCP PROTEASE-BINDING CYCLIC HEPTAPEPTIDES” (priority 2021, dated 2022)
